Laboratory results: patent US20100062067A1, “COMPOSITIONS COMPRISING MACROMOLECULAR ASSEMBLIES OF LIPID AND SURFACTANT” (MALVERN COSMECEUTICS LIMITED, priority 2006, published 2010)
Where two headings read alike, the source gives them in different places. Marks after values point to notes of the source that are not given here. Blank lines part the entries; values can stand above or below the compound they belong to.

What was measured:
[1] = rough average of manufacturer and literature values; cited from earlier work
[2] = Visual clarity of surfactant/lipid mixtures in water (Comparative Example 1); type: physicochemical
Description: The appropriate quantity of lipid and surfactant was added to water, which was then warmed to approximately 50° C. and stirred until a uniform emulsion was formed. The mixture was then homogenised for 10 minutes. Percentage values specified in this experiment refer to the weight of the component in question as a proportion of the total weight of the composition. Once the mixtures were prepared they were visually examined to determine whether the surfactant component had solubilized the lipid component in the aqueous medium. The clarity of a mixture was categorized as being clear if there was no significant visible opacity to the naked eye, whereas a mixture was categorized as cloudy if there was significant visible disruption to the passage of light.

[3] = Clarity and turbidity of surfactant/active agent mixtures in water (Comparative Example 2); type: physicochemical; conditions: surfactant 5% w/w + TECA 0.5% w/w in water, visual
[4] = Turbidity of surfactant/lipid compositions, formation of macromolecular complexes (Example 1); type: physicochemical; conditions: 2.5% surfactant, 1% 90H lipid, ca. 0.01% S LPC co-surfactant (as 0.05% SL 80-3) in water, room temperature
Description: Briefly, to the appropriate volume of warm water (ca. 60° C.), SL 80-3 was added. […] 90H was then added gradually, with heating and stirring maintained throughout and for a further 45 minutes after completion.
After mixing the solution was stirred and heated to around 60-70° C.
The required quantity of warm lipid emulsion was slowly added to the warm surfactant solution while stirring with the temperature maintained.

[5] = Solubilisation of piroctone olamine in compositions of the invention (Example 7); type: physicochemical; conditions: dried material (15 g Brij 35P, 6 g 90H, 0.3 g SL 80-3, 4.8 g active) re-solubilized into 50 g of water
Description: Macromolecular assemblies of the present invention which incorporated piroctone olamine were prepared in isopropanol using a method analogous to that described in Example 6 (in that case using ethanol solvent), before being dried by rotary evaporation. The dried material having the composition: • Surfactant—15 g Brij 35P • Lipid—6 g 90H • Co-surfactant (indirectly)—0.3 g SL 80-3 • Active agent—4.8 g piroctone olamine • i.e. total piroctone olamine by weight=18.4%
The dried material was then re-solubilized into 50 g of water to provide a concentrated solution (i.e. using the present invention enables aqueous formulations containing at least 9.6% piroctone olamine by weight to be prepared).

[6] = cited from earlier work
[7] = Surf. Brij 35P 2.5%, lipid 90H 1.0%, co-surf. S LPC ca. 0.01% (as SL 80-3 0.05%), active agent 0.10%
[8] = Reconstitution of dried (freeze-dried or rotary evaporated) formulations in water; type: physicochemical; conditions: rotary evaporated Brij 35P/90H/SL 80-3/progesterone composition
Source text: Of those samples which were dried, all were easily reconstituted into water at the same concentration as prior to drying.
Reconstitution of the freeze-dried composition containing Brij 35P (2.5%), 90H (1%), SL 80-3 (0.05%) and TECA (0.8%), indicated in the table above by #, was successful at a concentration of 32.4% by dry weight (i.e. an overall concentration of 6% active in the final aqueous solution).
The rotary evaporated composition containing Brij 35P (2.5%), 90H (1%), SL 80-3 (0.05%) and progesterone (0.1%), indicated in the table above by t, was reconstituted in water to provide a clear and colourless solution with a progesterone concentration of 0.25% (i.e. 2500 ug/ml, 2.7% progesterone by dry weight).

[9] = cited from earlier work; remark: listed apart in the source
[10] = Appearance of aqueous gel preparations (Examples 10 and 11); type: physicochemical; conditions: Example 11: TECA and VC-P solutions mixed with Blanose 7HF gel with Nipaguard DMDMH
Description: (§1) A stock solution of surfactant, co-surfactant, lipid and active agent was initially prepared in water at double the desired final concentration. Briefly, co-surfactant, lipid and active agent were dissolved in ethanol, while heating (approximately 30° C.) and stirring. Surfactant material was then added whilst maintaining heat and stir conditions. Ethanol was subsequently removed via rotary evaporation and the resulting dry material was then resolubilized in water with warming (ca. 50° C.) at double the desired final concentration.
Nipaguard PDU was dissolved into water while heating (approximately 30° C.) and stirring. Blanose® 7HF was then added until a uniform gel was formed.
Solution A and Solution B were then mixed in equal volumes to produce the final preparation.
as §1, with “prepared.” for “prepared in water at double the desired final concentration.”, “four times” for “double”
A stock solution of surfactant, co-surfactant, lipid and active agent was initially prepared. […]

Compound: CCCCCCCCCCCCOS(=O)(=O)[O-].[Na+] [SDS, Sodium dodecyl sulphate]
Average HLB [1]: 40
Clarity ([2]; surfactant 2.5% w/w + lipid 90H 1.0% w/w in water): Cloudy
Clarity ([2]; surfactant 5.0% w/w + lipid 90H 1.0% w/w in water): Clear
Clarity [3]: Cloudy
Average Turbidity [4]: 26.2 FNU

Active agent content of concentrated aqueous formulation [5]: at least 9.6 % by weight
Compound: Cc1cc(CC(C)CC(C)(C)C)n(O)c(=O)c1.NCCO (stereo not shown) [piroctone olamine]
Aqueous solubility with surfactant ([6]; 15% SDS, pH 7, room temperature): approximately 2.8%
Solubility ([6]; in 1,2-Propyleneglycol): 16.0%
Solubility ([6]; in Ethanol): 10.0%
Solubility ([6]; in Glycerol): 1.7%
Solubility ([6]; in Isopropanol): 5.0%
Solubility ([6]; in PEG-400): 1.9%
Solubility ([6]; in Water): 0.05%

Turbidity (FNU) [7]: 34.20† FNU
Active agent by dry weight [8]: 2.7%
Compound: CC(=O)[C@H]1CC[C@H]2[C@@H]3CCC4=CC(=O)CC[C@]4(C)[C@H]3CC[C@]12C [progesterone]
Active loading by dry weight ([9]; WO00/50007, 1.76 mg/ml using 198 mg of carrier): approximately 1.0%
Maximum concentration in aqueous dispersion ([9]; WO00/50007, using 198 mg of carrier): 1.76 mg/mL
Maximum concentration in aqueous dispersion ([9]; delivery system of WO00/50007 (Example 47), higher carrier concentration): 1.76 mg/mL

Compound: vitamin C dipalmitate [VC-P]
Appearance of cosmetic gel preparation [10]: clear and colourless aqueous gel
